Molecules are shown by their SMILES.

This test deals with T1, human Kv72+3 channels (Homo sapiens, UniProt O43525+O43526).
T1 construct: expressed in transfected cells
The test is described as follows: Patch-clamp on HEK293 cell lines stably expressing human Kv7.2+3 channels. It counts as cell-based. Particulars: conc. 0.03 μM, −30 mV, 20 ms; baseline current defined as 100%; HEK293 cells. The source says:
The effect obtained by these channel activators is described as a percentage increase in baseline current at a given concentration. The baseline current is defined as 100%, and an increase in current is expressed relative to this, i.e. an increase from 1 nA to 1.2 nA is reported as 120%.
Consider `CCN(C)c1nc(NCc2ccc(F)cc2)ccc1NC(=O)[C@@H]1C[C@H]1c1ccccc1` (relative stereo) [Compound 6, trans-2-Phenyl-cyclopropanecarboxylic acid [2-Ethylmethylamino-6-(4-fluoro-benzylamino)-pyridin-3-yl]-amide], for which the “I^K(%) increase in baseline current” value is recorded as 285%.

For `CCN(C)c1nc(NCC(C)C)ccc1NC(=O)Cc1cc(F)cc(F)c1` [Compound 11, 2-(3,5-Difluoro-phenyl)-N-[2-(ethyl-methyl-amino)-6-isobutylamino-pyridin-3-yl]-acetamide], the “I^K(%) increase in baseline current” value was found to be 548%.

Consider `CCN(C)c1nc(NCc2ccc(F)cc2)ccc1NC(=O)Cc1ccc(C(F)(F)F)c(F)c1` [Compound 3, N-[2-Ethylnnethylamino-6-(4-fluoro-benzylamino)-pyridin-3-yl]-2-(3-fluoro-4-trifluoromethyl-phenyl)-acetamide], for which the “I^K(%) increase in baseline current” value is recorded as 268%.

`CN(C)c1nc(NCc2ccc(F)cc2)ccc1NC(=O)Cc1cc(F)cc(F)c1` [Compound 1, N-[2-Dimethylamino-6-(4-fluoro-benzylamino)-pyridin-3-yl]-2-(3,5-difluoro-phenyl)-acetamide]: the “I^K(%) increase in baseline current” value was 685%.

For `CCN(C)c1nc(NCc2ccc(F)cc2)ccc1NC(=O)CC(C)(C)C` [Compound 8, N-[2-Ethylmethylamino-6-(4-fluoro-benzylamino)-pyridin-3-yl]-3,3-dimethyl-butyramide], the “I^K(%) increase in baseline current” value is listed as 105%.

The record behind these values is US20110003867A1, “NOVEL 2-ETHYL-METHYL-AMINO-3-AMIDO-6-AMINO-PYRIDINE DERIVATIVES USEFUL AS POTASSIUM CHANNEL ACTIVATORS” (NeuroSearch A/S, priority 2007, published 2011).
